Laboratory results taken from patent publication US20250009780A1, “AGENTS ENCODING CLDN6 AND CD3 BINDING ELEMENTS FOR TREATING CLDN6-POSITIVE CANCERS” (BIONTECH SE, priority 2021, published 2025).
Like-named read-outs stand apart in the source and are kept apart here.

Columns and labels:
[1] = Metabolism of ALC-0159 in vitro and ex vivo; type: in vitro ADME, mouse, rat, monkey and human; conditions: yields N,N-ditetradecylamine; across species
Description: The metabolism of ALC-0159, was examined in vitro using blood, liver S9 fractions and hepatocytes, all from mouse, rat, monkey and human and ex vivo in the rat plasma, urine, feces, and liver from the PK study. […] This hydrolytic metabolism was observed across the species evaluated.

[2] = Rat IV PK study of lipid excipient ALC-0159; type: in vivo, Wistar Han rats; conditions: for half-life: Wistar Han, rat, plasma, iv, 1.96 mg ALC-0159/kg, 1.96 mg ALC-0159/kg single IV
Method: BNT142 contains the PEG lipid excipient ALC-0159 in the nanoparticle. […] ALC-0159 was then cleared from plasma with a terminal elimination ty, of 72.7 h. The estimated percent of lipid dose distributed to the liver was ˜20%.

[3] = In vitro metabolic stability, S9 fractions; type: in vitro ADME, mouse, rat, monkey, and human; conditions: 120 min, all species
Method: (§1) The in vitro metabolic stability of ALC-0366 (aminolipid) was evaluated in mouse, rat, monkey, and human liver microsomes, S9 fractions, and hepatocytes. ALC-0366 was stable over 120 min in liver microsomes (remaining ALC-0366 >89%) and S9 fractions (remaining ALC-0366 >88%) and over 240 min in hepatocytes (remaining ALC-0366 >94%) in all species and test systems.

[4] = In vitro metabolic stability, liver microsomes; type: in vitro ADME, mouse, rat, monkey, and human; conditions: 120 min, all species
Method: as §1

[5] = In vitro metabolic stability, hepatocytes; type: in vitro ADME, mouse, rat, monkey, and human; conditions: 240 min, all species
Method: as §1

human PBMCs (T cells) [6] = assay: T-cell activation assay (CD69/CD25, flow cytometry); type: cell-based; conditions: with and without target cells (data not shown)
Method: Human PBMCs from three healthy donors (effector cells) were cultured in the presence and absence of CLDN6-positive PA-1 cells (target cells) at a 10:1 effector-to-target-cell ratio. RiboMab02.1-containing mouse serum was serially-diluted (10-fold, 10-point; range: 4.0×10^−6 to 4,000 ng/mL) prior to use in the assay. After 48 h of co-incubation, cells were stained with anti-CD5, anti-CD69 and anti-CD25 antibodies for flow cytometric analysis of T cells. Shown here is the total T-cell activation normalized to samples incubated with mock serum from Luc_RNA-LNP-treated mice. Percentages of activated T cells are shown for each individual donor (left) and for all three donors as mean (right). Filled symbols represent values with and black, open symbols without target cells.
RiboMab02.1-containing as well as mock serum samples were obtained from mice administered either with BNT142 or luciferase encoding RNA-LNP (Luc_RNA-LNP; mock). Human PBMCs from three healthy donors were used as effector cells. Serum samples were serially-diluted (10-fold, 10-point), starting at 4,000 ng/mL, and added to PBMCs cultured alone or together with CLDN6-positive PA-1 target cells at an effector-to-target-cell ratio of 10:1. After 48 h of incubation, T cells were analyzed by flow cytometry for surface expression of the early and late activation markers CD69 and CD25, respectively. […] OKT3 positive control led to >50% T-cell activation with and without target cells (data not shown). Upregulation of CD69 on T cells was higher than that of CD25; CD25-positive cells were almost exclusively CD69 double-positive, pointing to an early activation state (data not shown).

human PBMCs (T cells) [7] = assay: T-cell proliferation assay (CFSE-labeled PBMCs, flow cytometry); type: cell-based; conditions: presence as well as absence of target cells
Description: CFSE-labeled human PBMCs from three healthy donors were co-cultured with CLDN6-positive PA-1 and OV-90 target cells or with CLDN6-negative but control TAA-positive NUGC-4 as well as target-negative MDA-MB-231 control cells in a 12-well culture plate format. An effector-to-target-cell ratio of 10:1 was applied. In addition, PBMCs without (−) target cells were included separately. […] OKT3 antibody (anti-human CD3; black bars) served as positive control for target-independent CD3-driven T-cell proliferation. After 72 h of incubation, the percentages of proliferating T cells were analyzed by flow cytometry.
HEK-293T-17 producer cells were transfected with BNT142 or a control RiboMab-encoding RNA. Supernatants containing RiboMab02.1 or the control RiboMab (specific for an irrelevant TAA) were used as test items. Two concentrations (100 or 1 ng/mL) of RiboMab-containing supernatant were added to co-cultures of carboxyfluorescein succinimidyl ester (CFSE)-labeled human PBMCs and target-positive or -negative cells. PA-1 or OV-90 served as CLDN6-positive and MDA-MB-231 as target-negative cells. CLDN6-negative NUGC-4 cells (expressing the irrelevant TAA) as well as PBMCs in the absence of any target cells were included as further specificity controls. PBMCs from three healthy donors were compared in this assay. After 72 h of incubation, T cells were analyzed by flow cytometry to determine target-dependent proliferation.

human PBMCs = assay: In vitro human cytokine release (multiplex ELISA on T-cell activation assay supernatants); type: cell-based; conditions: positive control
Method: Cytokine concentration values for each donor (means of technical triplicates) are shown. Filled symbols represent values with target cells while open symbols represent values without target cells.
Cell culture supernatants obtained from the T-cell activation assay were analyzed to investigate the RiboMab02.1-dependent induction of on- and off-target cytokine release. The levels of human pro-inflammatory cytokines IFN-γ, IL-1β, IL-2, IL-6, IL-10 and TNF-α were measured using a customized multiplex ELISA kit.

[8] = system: 6,239 full-length human plasma membrane proteins and cell surface-tethered human secreted proteins; assay: Cell microarray off-target binding assay, remaining panel; conditions: fixed HEK293 cells
Description: (§2) The tribody was screened for binding against fixed human HEK293 cells, individually overexpressing 6,239 different full-length human plasma membrane proteins and cell surface-tethered human secreted proteins, including 371 heterodimers.

[9] = system: CLDN6-positive human ovarian carcinoma (OV-90) xenograft; assay: OV-90 xenograft model in PBMC-humanized NSG mice; type: in vivo, mouse
Method: NSG mice bearing advanced SC tumor xenografts of OV-90 cells (mean tumor volume at treatment start=100 mm^3) were engrafted with human PBMCs as effector cells by IP injection. Tumor volume was measured twice per week with a digital caliper. […] (A) Treatment schedule. (B) Tumor volume of individual mice at designated time points. (C) Overview of the median tumor volume per group, each comprising 13 to 14 mice at the start of the study and a minimum of five mice at the last data points. The vertical dotted lines represent the time points of IV administration of test/control items. Four mice (five mice from the 0.1 μg BNT142 group) from all groups were euthanized on Day 38 to obtain samples for ex vivo assays. (D) Number of CD3-positive cells per mm^2 of xenograft tissue as determined by immunohistochemical (IHC) staining using an anti-human CD3 antibody. […] Horizontal lines represent the mean (n=4 to 5). (E) Percentage of CLDN6-positive cells in tumor xenografts of mice from the respective test and control groups as determined by IHC staining using an anti-human CLDN6 antibody. Tumor xenografts were dissected at different time points over the course of the study. Horizontal lines represent the mean (n=8 to 10). […] Reddish-brown staining (dark in the black and white figure) indicates a positive IHC signal while the bluish-purple areas indicate an absence of positive staining (negative IHC signal).
To determine the anti-tumor efficacy of BNT142 in vivo, a CLDN6-positive human ovarian carcinoma (OV-90) xenograft mouse model was used. Briefly, immunodeficient male and female NOD.Cg-Prkd^scid IL2rg^tm1Wjl/SzJ (NSG) mice were subcutaneously (SC) inoculated with human OV-90 ovarian carcinoma cells. Mice with established tumors (mean size ≥30 mm^3) were engrafted intraperitoneally (IP) with human PBMCs from a healthy donor (resulting mouse model annotated as NSG/PBMC). Seven days later, a treatment regimen comprising five weekly single IV bolus injections of BNT142 or control items was initiated. BNT142 was administered at doses of 0.1 or 1 μg (˜0.004 and 0.04 mg/kg) per mouse. […]

[10] = system: human pro-inflammatory cytokines in NSG/PBMC mice; assay: Human cytokine release in serum of NSG/PBMC mice; type: in vivo, mouse; conditions: 100 μg reference protein; 6-hour time point
Method: An additional non-tumor-bearing (w/o tumor) group administered with 1 μg BNT142 was included. (A) Concentrations of human cytokines (IFN-γ, IL-6, IL-2, IL-10, TNF-α and IL-1β) in mouse serum as determined by multiplex ELISA at the 6- (n=8) and 72-hour (n=4) time points. Data was normalized to saline-administered animals of the respective time points. Horizontal lines indicate medians. Unpaired and paired samples were compared using the Mann-Whitney U test or Wilcoxon signed-rank test, respectively. […] Horizontal lines indicate means.
The human pro-inflammatory cytokines IFN-γ, IL-1β, IL-2, IL-6, IL-10 and TNF-α were measured in serum samples of OV-90 human xenograft tumor-bearing NSG/PBMC mice obtained after 6 and 72 h of the third BNT142 administration (see above). An additional group of tumor-free NSG/PBMC mice was treated with 1 μg BNT142. […] Data were normalized to the values obtained with the saline control group at the respective time points.

CLDN9 = target: T1, CLDN9 (Homo sapiens, UniProt O95484); assay: Cell microarray off-target binding assay, CLDN9; parameters: individually overexpressing 6,239 different full-length human plasma membrane proteins; expressed in transfected cells; host or cells: fixed human HEK293 cells; conditions: fixed HEK293 cells overexpressing target
T1 sequence (O95484 1-217): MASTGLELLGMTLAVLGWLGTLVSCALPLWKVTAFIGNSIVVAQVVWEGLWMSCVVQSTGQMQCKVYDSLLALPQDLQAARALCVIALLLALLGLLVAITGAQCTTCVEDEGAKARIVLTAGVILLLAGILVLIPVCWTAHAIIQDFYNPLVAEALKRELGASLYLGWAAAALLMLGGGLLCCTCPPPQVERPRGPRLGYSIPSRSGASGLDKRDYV
Description: as §2

CLDN6 = target: T2, CLDN6 (Homo sapiens, UniProt P56747); assay: Cell microarray off-target binding assay, CLDN6; conditions: fixed HEK293 cells overexpressing target
T2 construct: expressed in transfected cells
T2 sequence (P56747 1-220): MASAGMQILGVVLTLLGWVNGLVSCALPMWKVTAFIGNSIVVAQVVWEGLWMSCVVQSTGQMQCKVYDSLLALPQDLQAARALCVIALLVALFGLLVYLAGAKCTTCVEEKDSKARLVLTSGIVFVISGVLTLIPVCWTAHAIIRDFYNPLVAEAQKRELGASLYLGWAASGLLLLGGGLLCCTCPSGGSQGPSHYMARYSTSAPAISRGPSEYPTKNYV
Description: as §2

With `CCCCCCCCCCCCCCN(CCCCCCCCCCCCCC)C(=O)COCCOCCOCCOCCOCCOCCOCCOCCOCCOCCOCCOCCOCCOCCOCCOCCOCCOCCOCCOCCOCCOCCOCCOCCOCCOCCOCCOCCOCCOCCOCCOCCOCCOCCOCCOCCOCCOCCOCCOCCOCCOCCOCCOCCOCCOC` [ALC-0159, 2-[(Polyethylene glycol)-2000]-N,N-ditetradecylacetamide] the metabolism [1] was “metabolized relatively slowly by amide bond hydrolysis”, the excretion in urine ([2]; IV administration of RNA-LNP) was “no detectable excretion” and the “percentage of dose excreted unchanged in feces” value ([2]; IV administration of RNA-LNP) was ~50%. For the same compound, the half-life ([2]; read-out: initial plasma half-life (converted)) was 1.72 h, the half-life ([2]; read-out: terminal elimination half-life in plasma (converted)) was 72.7 h and the “drop of plasma concentration” value ([2]; during 2 wk study) was “approximately 8,000 fold”. For the same compound, the “estimated percent of lipid dose distributed to the liver” value ([2]; single IV) was ~20%.

In the case of `CCCCCCC(CCCC)C(=O)OCCCCCCCCCN(CCCO)CCCCCCCCCOC(=O)C(CCCC)CCCCCC` (centres unmarked) [ALC-0366, ((3-Hydroxypropyl)azanediyl)bis(nonane-9,1-diyl) bis(2-butyloctanoate)], the “remaining ALC-0366” value [3] is reported as > 88%, the “remaining ALC-0366” value [4] is reported as > 89% and the “remaining ALC-0366” value [5] is reported as > 94%.

For “OKT3: human CD3-specific antibody used as positive control for T-cell activation [reference compound]”, the T-cell activation (human PBMCs (T cells) [6]) was > 50%, the “T-cell activation (positive control in proliferation assay)” value (human PBMCs (T cells) [7]) was “strong activation” and the cytokine release (human PBMCs) was “induced cytokine release in the presence as well as absence of target cells”.

With “reference protein: recombinant purified CD3×(CLDN6)2 tribody reference protein, sequence-identical to RiboMab02.1” the other binding [8] was “No other binding was observed”, the “start of tumor volume shrinkage” value ([9]; 100 μg reference protein IV once weekly x5) was “after the third treatment” and the “TIL per mm^2 tumor tissue (average)” value ([9]; 100 μg reference protein, 72 h after third injection) was 1,542 per mm^2. For the same compound, the tumor reduction ([9]; treated groups in contrast to negative control groups) was “significant tumor reduction”, the “human cytokine elevation in serum” value [10] was “transient but significant elevation of all six cytokines” and the “interaction with CLDN9” value (CLDN9) was “weak off-target interaction”. For the same compound, the “interaction with CLDN6” value (CLDN6) was “specific interaction”.
